By logP is commonly meant the decadic logarithm of the partition coefficient of the neutral form, usually between octanol and water. As usually defined, the logD is lipophilicity at a set pH, counting ionised and neutral species.

One series is described as follows: method code SF, from Hansch, C. & Leo, A. (1987). Log P database [Dataset]. Pomona College Medicinal Chemistry Project.
Details: not given
Molecule `Cc1ccc(Cc2c[nH]c(NCCCCc3ccc(Br)cc3C)nc2=O)cn1` had a logP of 3.61.
The molecule `ONc1ccccc1` displayed a logP of 0.79.
On the same count and under the same terms, the value for `CC(=O)Oc1ccccc1C` was 1.93; that for `CS(=O)(=O)Nc1ccccc1` was 0.95; that for `CC(F)F` was 0.75.
Still for that read-out and setting: the value for `CNC(=O)COc1ccccc1` was 1.02.
`CC(=O)C(=Cc1ccc(Br)cc1)C(C)=O` returned a logP of 2.75.
`O=C(O)CSCc1ccccc1` registered a logP of 2.1.
Regarding `CCOC(=O)/C(=C/c1ccc(OC)c(OC)c1)C(C)=O`, the logP is 2.02.
`O=C(O)CONC(=O)c1ccccc1` returned a logP of -0.27.
`Cc1ccc2[nH]c(=O)[nH]c(=O)c2c1` had a logP of 0.55.
The molecule `C=C(CC(Cl)(Cl)Cl)c1ccccc1` had a logP of 4.56.
In the case of `C[C@@H]1C[C@H]2[C@@H]3CCC4=CC(=O)C=C[C@]4(C)[C@@]3(F)[C@@H](O)C[C@]2(C)[C@@]1(O)C(=O)CO`, the logP was 1.99.
On the same count and under the same terms, the value for `O=[N+]([O-])c1ccc(OCCn2ccnn2)cc1` was 1.19.
As to `CN(C=O)c1ccccc1`, the logP amounted to 1.09.
As to `OCc1cccs1`, the logP was determined as 0.87.
For the molecule `CC1=Nc2ccc(Br)cc2S(=O)(=O)N1`, the logP stood at 1.37.
Turning to `CC(C)C1=Nc2cc(Cl)ccc2S(=O)(=O)N1`, the logP is 2.
Turning to `NC(=O)c1ccc(C(O)C(CO)NC(=O)C(Cl)Cl)cc1` (centres undefined), the logP is -0.48.
Molecule `N#Cc1c(N)sc2ccccc12` came in with a logP of 2.17.
Still for that read-out and setting: to `CCCOCCC` belongs 2.03; to `CC(=O)Oc1ccccc1F`, 1.76.
`Cc1ccc2c(=O)[nH]c(=O)[nH]c2c1` displayed a logP of 0.55.
Turning to `CC(=O)Nc1ccc2c(c1)[nH]c1ccccc12`, the logP was found to be 3.02.
On the same count and under the same terms, to `CNc1ccccc1[N+](=O)[O-]` belongs 2.18.
Molecule `NC(=O)c1ccc(C(F)(F)F)cc1` came in with a logP of 1.71.
On to `CCOCCOC(=O)C(C#N)=C(CC)NCc1ccc([N+](=O)[O-])cc1`, for which the logP was found to be 2.64.
For the molecule `OC/C=C/c1ccccc1`, the logP worked out at 1.95.
`O=C(Nc1ccccc1)N(c1ccccc1)c1ccccc1`: the logP amounted to 3.28.
For `COc1ccc(/N=N/N(C)C(C)=O)cc1`, the logP amounted to 2.61.
On the same count and under the same terms, to `CC(=O)c1ccccc1Cl` belongs 2.09.
On the same count and under the same terms, the value for `CC(=O)NNC(=O)c1ccccn1` was -0.59; that for `O=C(O)CS` was 0.09; that for `FC(F)OC(Cl)C(F)(F)F` (centres undefined) was 2.06.
`COc1ccc(C=C(C(C)=O)C(C)=O)cc1` registered a logP of 1.73.
Still for that read-out and setting: the value for `CCCCCCC1CCC(=O)O1` (centres undefined) was 2.72.
In turn, `O=C1CCCCC1` gave a logP of 0.81.
As for `CCOC(=O)C(=Cc1ccc(OC)cc1)C(=O)OCC`, the logP is 3.28.
Regarding `CC1=Nc2cc(Br)ccc2S(=O)(=O)N1`, the logP amounted to 1.37.
`N#CN=[N+]([O-])c1cccc([N+](=O)[O-])c1` returned a logP of 1.45.
The molecule `COc1ccc(NC(C)=O)cc1` gave a logP of 1.1.
Still for that read-out and setting: the value for `CCOP(=O)(OCC)OCC` was 0.8; that for `O=C(NCC(O)CO)Nc1ccccc1` (centres undefined) was 0.28; that for `CC(=O)NCc1ccccc1` was 0.95.
On the same count and under the same terms, to `Cn1ccccc1=O` belongs -0.23.
Molecule `CCCCC1C(=O)NC(=O)NC1=O` returned a log partition coefficient (logP) of 0.77.
In the case of `O=C(Nc1ccccc1)c1cccnc1`, the logP was 1.73.
As to `N#CN=[N+]([O-])c1cccc(Br)c1`, the logP is 2.56.
On the same count and under the same terms, the value for `CCOS(=O)(=O)c1ccc(C)cc1` was 1.81.
Same read-out and setting: the value for `O=NN(CCF)C(=O)NC1CCC(NC(=O)N(CCF)N=O)CC1` (centres undefined) was 1.34.
For `CCOC(=O)C(O)c1ccccc1` (centres undefined), the log partition coefficient (logP) was determined as 1.53.
In turn, `CC(=O)OC1OC(C)C(OC(C)=O)C(OC(C)=O)C1NC(=O)N(CCCl)N=O` (centres undefined) showed a logP of 1.32.
The molecule `N#CN/C(N)=N/c1ccccc1` returned a logP of 1.05.
As for `Oc1ccccc1/C=N/c1ccccc1`, the logP was 3.09.
Consider `NC(=O)N/N=C/c1ccccc1`, for which the logP came out at 1.27.
`O=[N+]([O-])c1ccsc1` displayed a logP of 1.55.
The molecule `CN(C(=O)CCSC#N)c1ccc(S(=O)(=O)N(C)C)cc1` gave a logP of 0.84.
Molecule `O=C(CO)OCc1ccccc1` displayed a logP of 1.12.
On to `CCOC(=O)C(=Cc1cccc(Cl)c1)C(=O)OCC`, for which the logP was found to be 3.49.
`FC(F)(F)c1cccc2cccnc12` registered a logP of 2.5.
As to `COC(=O)C(C)Oc1ccc(Oc2ccc(Cl)cc2Cl)cc1` (centres undefined), the logP came out at 4.8.
The same measure, in the same setting: to `CC=CC1=Nc2cc(Cl)ccc2S(=O)(=O)N1` belongs 1.96.
For `C=C(F)F`, the lipophilicity (logP) is 1.24.
The molecule `CNC(C)=O` returned a logP of -1.05.
In turn, `Nc1cccc2c1C(=O)c1ccccc1C2=O` registered a lipophilicity (logP) of 2.87.
For `S=c1cc[nH]cc1`, the logP turned out to be 0.2.
Consider `CCCCC1OC(=O)c2cc(O)ccc21` (centres undefined), for which the logP is 3.12.
`N/N=C1\c2ccccc2C(=O)C1C(=O)C(c1ccccc1)c1ccccc1` (centres undefined) displayed a logP of 3.62.
Take `COP(=S)(NC(C)C)Oc1ccc(Cl)cc1Cl` (centres undefined): the logP was 4.3.
On the same count and under the same terms, the value for `CCOC(=O)C(=Cc1ccccc1Cl)C(C)=O` was 2.84.
`CC(C)(Cc1ccccc1)NC(=O)N(CCCl)N=O`: the lipophilicity (logP) is 3.73.
The same measure, in the same setting: to `CC(=O)O[C@@H]1[C@@H](OC(C)=O)[C@H](OC(C)=O)CO[C@H]1NC(=O)N(CCCl)N=O` belongs 1.05.
`CCCCOc1ccc(C(N)=O)cc1` showed a logP of 2.48.
On the same count and under the same terms, the value for `O=C(O)c1cccs1` was 1.57; that for `CC(=O)Nc1ccccc1C(F)(F)F` was 1.11.
`O=C1C(NCC(O)CO)=C(N2CC2)C(=O)C(NCC(O)CO)=C1N1CC1` (centres undefined): the logP was -1.97.
In the case of `N#CC(=Cc1ccccc1)C(=O)Nc1ccccc1`, the logP amounted to 3.41.

The same series, now with this note: pH 2.0.
`O=C(O)c1ccc[nH]1` showed a logD of 0.85.

Still in this series, the particulars now being: pH 5.9.
Turning to `CCOc1cc(Oc2ccc(C(F)(F)F)cc2Cl)ccc1[N+](=O)[O-]`, the logD was found to be 4.7.

The series is the same for the next values; noted with them: pH 6.8.
`COC1(NC(=O)CSC(F)F)C(=O)N2C(C(=O)OCC(=O)C(C)(C)C)=C(CSC3(C)N=NN=N3)CSC21` (centres undefined) came in with a logD of 2.31.

Still in this series, the particulars now being: pH 7.0.
The molecule `CCOc1cccc(NC(C)=O)c1` yielded a logD of 1.82.

Still in this series, the particulars now being: pH 7.4.
With `NC(=O)c1ncccc1O`, the logD worked out at 0.65.
On the same count and under the same terms, the value for `O=c1[nH]c(=O)n(C2CCCO2)cc1F` (centres undefined) was -0.27; that for `C=CCn1c(C)c(N(C)C)c(=O)n(-c2ccccc2)c1=O` was 1.44.
`Sc1ncnc2nc[nH]c12` registered a logD of 0.01.
With `C=CCn1c(=O)c(N(C)C)c(C)n(-c2ccccc2)c1=O`, the log distribution coefficient (logD) amounted to 1.98.
`Nc1ccc(C(F)(F)F)cc1`: the logD came to 2.39.

Still in this series, the particulars now being: pH 11.0.
In the case of `c1cncc(CCN2CCCC2)c1`, the logD stood at 1.34.
With `CCN(CC)CCc1cccnc1`, the logD is 1.23.

Staying with this series, now noted: pH 12.0.
The molecule `CCCCC1CC(C(=O)NC(C(C)O)C2OC(SC)C(O)C(O)C2O)N(CC)C1` (centres undefined) showed a logD of 1.76.
For `CCCC1CC(C(=O)NC(C(C)Cl)C2OC(SCC)C(O)C(O)C2O)N(CC)C1` (centres undefined), the logD came out at 3.18.

Staying with this series, now noted: pH 13.0.
In turn, `CS(=O)(=O)Oc1ccccc1Cc1cnc(N)nc1N` had a pH-dependent lipophilicity (logD) of 0.71.
For the molecule `CC1(C)N=C(N)N=C(N)N1c1ccc(C(F)(F)F)cc1`, the logD is 1.22.
As to `COc1ccc(OC)c(Cc2cnc3nc(N)nc(N)c3c2C)c1`, the logD was found to be 2.13.
